Earlier results as cited in patent US9534000B2, “Cytotoxic benzodiazepine derivatives and methods of preparation” (ImmunoGen, Inc., priority 2011, dated 2017).

Conditions: Phase I clinical evaluation

C=C1C[C@H]2C=Nc3cc(OCCCOc4cc5c(cc4OC)C(=O)N4CC(=C)C[C@H]4C=N5)c(OC)cc3C(=O)N2C1 [SJG-136]
DNA damage in circulating lymphocytes: noted at all doses
